Laboratory results taken from ChEMBL document CHEMBL5303573, “Mapping human microbiome drug metabolism by gut bacteria and their genes” (Nature, 2019).
Non-standard residues stand in square brackets, D forms with d. Residues, ends and D or L forms follow the SMILES beside them. pGlu = O=C1CC[C@@H](C(=O)O)N1; Thz = O=C(O)[C@@H]1CSCN1

Experiments:
[1] = The drug is tested on Ruminococcus torques strain: ATCC27756 for biotransformation. The drug concentrations were measured before and after a 12-h incubation by liquid-chromatography-coupled mass spectrometry (LC–MS); assay type: ADME; parameters: dose 2 uM, timepoint 0 vs 12 hours; settings: 2 µM
[2] = The drug is tested on Bifidobacterium ruminantium strain: fecal isolate for biotransformation. The drug concentrations were measured before and after a 12-h incubation by liquid-chromatography-coupled mass spectrometry (LC–MS); settings: 2 µM
[3] = bacteroides stercoris, 12 h, 2 µM
Description: The drug is tested on Bacteroides stercoris strain: ATCC43183 for biotransformation. The drug concentrations were measured before and after a 12-h incubation by liquid-chromatography-coupled mass spectrometry (LC–MS)

[4] = The drug is tested on Odoribacter splanchnicus strain: fecal isolate for biotransformation. The drug concentrations were measured before and after a 12-h incubation by liquid-chromatography-coupled mass spectrometry (LC–MS); settings: 2 µM
[5] = The drug is tested on Eubacterium rectale strain: ATCC33656 for biotransformation. The drug concentrations were measured before and after a 12-h incubation by liquid-chromatography-coupled mass spectrometry (LC–MS); settings: agathobacter rectalis, 2 µM
[6] = The drug is tested on Clostridium asparagiforme strain: DSM15981 for biotransformation. The drug concentrations were measured before and after a 12-h incubation by liquid-chromatography-coupled mass spectrometry (LC–MS); assay type: ADME; parameters: dose 2 uM, timepoint 0 vs 12 hours; settings: enterocloster asparagiformis, 2 µM
[7] = bacteroides thetaiotaomicron, 12 h, 2 µM
Description: The drug is tested on Bacteroides thetaiotaomicron strain: VPI-5482 for biotransformation. The drug concentrations were measured before and after a 12-h incubation by liquid-chromatography-coupled mass spectrometry (LC–MS)

[8] = segatella copri, 12 h, 2 µM
Description: The drug is tested on Prevotella copri strain: DSM18205 for biotransformation. The drug concentrations were measured before and after a 12-h incubation by liquid-chromatography-coupled mass spectrometry (LC–MS)

[9] = The drug is tested on Providencia stuartii strain: ATCC25827 for biotransformation. The drug concentrations were measured before and after a 12-h incubation by liquid-chromatography-coupled mass spectrometry (LC–MS); settings: 2 µM
[10] = The drug is tested on Bacteroides vulgatus strain: ATCC8482 for biotransformation. The drug concentrations were measured before and after a 12-h incubation by liquid-chromatography-coupled mass spectrometry (LC–MS); settings: phocaeicola vulgatus, 2 µM
[11] = The drug is tested on Bacteroides sp. WH2 strain: WH2 for biotransformation. The drug concentrations were measured before and after a 12-h incubation by liquid-chromatography-coupled mass spectrometry (LC–MS); settings: bacteroides sp. wh2, 12 h, 2 µM
[12] = The drug is tested on Blautia luti strain: DSM14534 for biotransformation. The drug concentrations were measured before and after a 12-h incubation by liquid-chromatography-coupled mass spectrometry (LC–MS); assay type: ADME; parameters: dose 2 uM, timepoint 0 vs 12 hours; settings: 2 µM
[13] = The drug is tested on Bacteroides finegoldii strain: DSM17565 for biotransformation. The drug concentrations were measured before and after a 12-h incubation by liquid-chromatography-coupled mass spectrometry (LC–MS); settings: 2 µM
[14] = The drug is tested on Bacteroides dorei strain: DSM17855 for biotransformation. The drug concentrations were measured before and after a 12-h incubation by liquid-chromatography-coupled mass spectrometry (LC–MS); settings: phocaeicola dorei, 2 µM
[15] = The drug is tested on Bacteroides pectinophilus strain: ATCC43243 for biotransformation. The drug concentrations were measured before and after a 12-h incubation by liquid-chromatography-coupled mass spectrometry (LC–MS); settings: 2 µM
[16] = The drug is tested on Bacteroides ovatus strain: ATCC8483 for biotransformation. The drug concentrations were measured before and after a 12-h incubation by liquid-chromatography-coupled mass spectrometry (LC–MS); settings: 2 µM
[17] = The drug is tested on Enterobacter cancerogenus strain: ATCC35316 for biotransformation. The drug concentrations were measured before and after a 12-h incubation by liquid-chromatography-coupled mass spectrometry (LC–MS); settings: 2 µM
[18] = enterocloster bolteae, 12 h, 2 µM
Description: The drug is tested on Clostridium bolteae strain: ATCCBAA-613 for biotransformation. The drug concentrations were measured before and after a 12-h incubation by liquid-chromatography-coupled mass spectrometry (LC–MS)

[19] = bacteroides eggerthii, 12 h, 2 µM
Description: The drug is tested on Bacteroides eggerthii strain: DSM20697 for biotransformation. The drug concentrations were measured before and after a 12-h incubation by liquid-chromatography-coupled mass spectrometry (LC–MS)

[20] = The drug is tested on Eubacterium hallii strain: DSM3353 for biotransformation. The drug concentrations were measured before and after a 12-h incubation by liquid-chromatography-coupled mass spectrometry (LC–MS); settings: anaerobutyricum hallii, 2 µM

C[C@@H](CO)NC(=O)[C@@H]1C=C2c3cccc4[nH]cc(c34)C[C@H]2N(C)C1.O=C(O)/C=C\C(=O)O [ERGONOVINE MALEATE]
Bacterial Biotransformation [1]: Compound NOT metabolized
Bacterial Biotransformation [2]: Compound NOT metabolized
Bacterial Biotransformation [3]: Compound NOT metabolized
Bacterial Biotransformation [4]: Compound metabolized
Bacterial Biotransformation [5]: Compound NOT metabolized
Bacterial Biotransformation [6]: Compound metabolized
Bacterial Biotransformation [7]: Compound metabolized
Bacterial Biotransformation [8]: Compound metabolized
Bacterial Biotransformation [9]: Compound metabolized
Bacterial Biotransformation [10]: Compound metabolized
Bacterial Biotransformation [11]: Compound metabolized
Bacterial Biotransformation [12]: Compound NOT metabolized
Bacterial Biotransformation [13]: Compound NOT metabolized
Bacterial Biotransformation [14]: Compound metabolized
Bacterial Biotransformation [15]: Compound metabolized
Bacterial Biotransformation [16]: Compound metabolized
Bacterial Biotransformation [17]: Compound metabolized

O=C1CC[C@@H](C(=O)N2CSC[C@H]2C(=O)O)N1 [PIDOTIMOD] ([pGlu]-[Thz]-OH)
Bacterial Biotransformation [1]: Compound NOT metabolized
Bacterial Biotransformation [18]: Compound NOT metabolized
Bacterial Biotransformation [2]: Compound NOT metabolized
Bacterial Biotransformation [3]: Compound metabolized
Bacterial Biotransformation [19]: Compound NOT metabolized
Bacterial Biotransformation [4]: Compound NOT metabolized
Bacterial Biotransformation [5]: Compound NOT metabolized
Bacterial Biotransformation [20]: Compound NOT metabolized
Bacterial Biotransformation [6]: Compound NOT metabolized
Bacterial Biotransformation [7]: Compound metabolized
Bacterial Biotransformation [8]: Compound metabolized
Bacterial Biotransformation [9]: Compound NOT metabolized
Bacterial Biotransformation [10]: Compound NOT metabolized
Bacterial Biotransformation [11]: Compound NOT metabolized
Bacterial Biotransformation [12]: Compound NOT metabolized
Bacterial Biotransformation [14]: Compound metabolized
Bacterial Biotransformation [15]: Compound NOT metabolized
Bacterial Biotransformation [16]: Compound metabolized
Bacterial Biotransformation [17]: Compound NOT metabolized

O=C(NCc1ccccc1)OCCO [BURAMATE]
Bacterial Biotransformation [1]: Compound NOT metabolized
Bacterial Biotransformation [18]: Compound NOT metabolized
Bacterial Biotransformation [2]: Compound NOT metabolized
Bacterial Biotransformation [3]: Compound NOT metabolized
Bacterial Biotransformation [19]: Compound NOT metabolized
Bacterial Biotransformation [4]: Compound NOT metabolized
Bacterial Biotransformation [5]: Compound NOT metabolized
Bacterial Biotransformation [20]: Compound NOT metabolized
Bacterial Biotransformation [6]: Compound NOT metabolized
Bacterial Biotransformation [7]: Compound NOT metabolized
Bacterial Biotransformation [8]: Compound NOT metabolized
Bacterial Biotransformation [10]: Compound NOT metabolized
Bacterial Biotransformation [11]: Compound NOT metabolized
Bacterial Biotransformation [12]: Compound NOT metabolized
Bacterial Biotransformation [13]: Compound NOT metabolized
Bacterial Biotransformation [14]: Compound NOT metabolized
Bacterial Biotransformation [15]: Compound NOT metabolized
Bacterial Biotransformation [16]: Compound NOT metabolized
Bacterial Biotransformation [17]: Compound NOT metabolized

CN[C@H]1CC[C@@H](c2ccc(Cl)c(Cl)c2)c2ccccc21 [SERTRALINE]
Bacterial Biotransformation [1]: Compound NOT metabolized
Bacterial Biotransformation [2]: Compound NOT metabolized
Bacterial Biotransformation [3]: Compound NOT metabolized
Bacterial Biotransformation [19]: Compound NOT metabolized
Bacterial Biotransformation [4]: Compound NOT metabolized
Bacterial Biotransformation [5]: Compound NOT metabolized
Bacterial Biotransformation [20]: Compound NOT metabolized
Bacterial Biotransformation [6]: Compound NOT metabolized
Bacterial Biotransformation [7]: Compound NOT metabolized
Bacterial Biotransformation [8]: Compound NOT metabolized
Bacterial Biotransformation [10]: Compound NOT metabolized
Bacterial Biotransformation [11]: Compound NOT metabolized
Bacterial Biotransformation [12]: Compound NOT metabolized
Bacterial Biotransformation [13]: Compound NOT metabolized
Bacterial Biotransformation [14]: Compound NOT metabolized
Bacterial Biotransformation [15]: Compound NOT metabolized
Bacterial Biotransformation [16]: Compound NOT metabolized
Bacterial Biotransformation [17]: Compound NOT metabolized

Cc1nc(-c2ccc(OCC(C)C)c(C#N)c2)sc1C(=O)O [FEBUXOSTAT]
Bacterial Biotransformation [1]: Compound NOT metabolized
Bacterial Biotransformation [18]: Compound NOT metabolized
Bacterial Biotransformation [2]: Compound NOT metabolized
Bacterial Biotransformation [3]: Compound NOT metabolized
Bacterial Biotransformation [19]: Compound NOT metabolized
Bacterial Biotransformation [4]: Compound metabolized
Bacterial Biotransformation [5]: Compound NOT metabolized
Bacterial Biotransformation [20]: Compound NOT metabolized
Bacterial Biotransformation [6]: Compound NOT metabolized
Bacterial Biotransformation [7]: Compound NOT metabolized
Bacterial Biotransformation [9]: Compound NOT metabolized
Bacterial Biotransformation [10]: Compound metabolized
Bacterial Biotransformation [11]: Compound NOT metabolized
Bacterial Biotransformation [12]: Compound NOT metabolized
Bacterial Biotransformation [13]: Compound NOT metabolized
Bacterial Biotransformation [14]: Compound metabolized
Bacterial Biotransformation [15]: Compound NOT metabolized
Bacterial Biotransformation [16]: Compound NOT metabolized
Bacterial Biotransformation [17]: Compound NOT metabolized

NC(CO)(CO)CO.O=C(c1ccccc1)c1ccc2n1CCC2C(=O)O (centres undefined) [KETOROLAC TROMETHAMINE]
Bacterial Biotransformation [18]: Compound NOT metabolized
Bacterial Biotransformation [2]: Compound NOT metabolized
Bacterial Biotransformation [19]: Compound NOT metabolized
Bacterial Biotransformation [4]: Compound NOT metabolized
Bacterial Biotransformation [5]: Compound NOT metabolized
Bacterial Biotransformation [6]: Compound NOT metabolized
Bacterial Biotransformation [7]: Compound metabolized
Bacterial Biotransformation [8]: Compound metabolized
Bacterial Biotransformation [9]: Compound NOT metabolized
Bacterial Biotransformation [10]: Compound metabolized
Bacterial Biotransformation [11]: Compound NOT metabolized
Bacterial Biotransformation [12]: Compound NOT metabolized
Bacterial Biotransformation [14]: Compound metabolized
Bacterial Biotransformation [15]: Compound NOT metabolized
Bacterial Biotransformation [17]: Compound NOT metabolized

C[C@]12C=CC(=O)C=C1CC[C@@H]1[C@@H]2C(=O)C[C@@]2(C)[C@H]1CC[C@]2(O)C(=O)CO [PREDNISONE]
Bacterial Biotransformation [1]: Compound NOT metabolized
Bacterial Biotransformation [18]: Compound NOT metabolized
Bacterial Biotransformation [2]: Compound NOT metabolized
Bacterial Biotransformation [19]: Compound NOT metabolized
Bacterial Biotransformation [4]: Compound NOT metabolized
Bacterial Biotransformation [5]: Compound NOT metabolized
Bacterial Biotransformation [20]: Compound NOT metabolized
Bacterial Biotransformation [6]: Compound NOT metabolized
Bacterial Biotransformation [7]: Compound NOT metabolized
Bacterial Biotransformation [8]: Compound NOT metabolized
Bacterial Biotransformation [9]: Compound NOT metabolized
Bacterial Biotransformation [10]: Compound NOT metabolized
Bacterial Biotransformation [11]: Compound NOT metabolized
Bacterial Biotransformation [12]: Compound NOT metabolized
Bacterial Biotransformation [13]: Compound NOT metabolized
Bacterial Biotransformation [14]: Compound NOT metabolized
Bacterial Biotransformation [15]: Compound NOT metabolized
Bacterial Biotransformation [16]: Compound NOT metabolized
Bacterial Biotransformation [17]: Compound NOT metabolized

CC(CN(C)C)CN1c2ccccc2CCc2ccccc21.O=C(O)/C=C\C(=O)O (centres undefined) [TRIMIPRAMINE MALEATE]
Bacterial Biotransformation [1]: Compound NOT metabolized
Bacterial Biotransformation [18]: Compound NOT metabolized
Bacterial Biotransformation [2]: Compound NOT metabolized
Bacterial Biotransformation [3]: Compound NOT metabolized
Bacterial Biotransformation [19]: Compound NOT metabolized
Bacterial Biotransformation [4]: Compound NOT metabolized
Bacterial Biotransformation [5]: Compound NOT metabolized
Bacterial Biotransformation [20]: Compound NOT metabolized
Bacterial Biotransformation [6]: Compound NOT metabolized
Bacterial Biotransformation [9]: Compound NOT metabolized
Bacterial Biotransformation [10]: Compound NOT metabolized
Bacterial Biotransformation [11]: Compound NOT metabolized
Bacterial Biotransformation [12]: Compound NOT metabolized
Bacterial Biotransformation [13]: Compound NOT metabolized
Bacterial Biotransformation [14]: Compound NOT metabolized
Bacterial Biotransformation [15]: Compound NOT metabolized
Bacterial Biotransformation [16]: Compound NOT metabolized
Bacterial Biotransformation [17]: Compound NOT metabolized
